The values that follow come from patent US8710043B2, “TRPM8 antagonists and their use in treatments” (Amgen Inc., priority 2011, dated 2014).

By pIC50 is commonly meant the IC50 on a negative log10 scale, so that one unit is a factor of ten.

pIC50: −log10 of the molar value.

This assay deals with T1, human TRPM8 (Homo sapiens, UniProt Q7Z2W7).
T1 construct: expressed in transfected cells; host or cells: Chinese hamster ovary (CHO) cells, T-REx tetracycline-inducible system, co-transfected with aequorin
T1 sequence (Q7Z2W7 whole entry): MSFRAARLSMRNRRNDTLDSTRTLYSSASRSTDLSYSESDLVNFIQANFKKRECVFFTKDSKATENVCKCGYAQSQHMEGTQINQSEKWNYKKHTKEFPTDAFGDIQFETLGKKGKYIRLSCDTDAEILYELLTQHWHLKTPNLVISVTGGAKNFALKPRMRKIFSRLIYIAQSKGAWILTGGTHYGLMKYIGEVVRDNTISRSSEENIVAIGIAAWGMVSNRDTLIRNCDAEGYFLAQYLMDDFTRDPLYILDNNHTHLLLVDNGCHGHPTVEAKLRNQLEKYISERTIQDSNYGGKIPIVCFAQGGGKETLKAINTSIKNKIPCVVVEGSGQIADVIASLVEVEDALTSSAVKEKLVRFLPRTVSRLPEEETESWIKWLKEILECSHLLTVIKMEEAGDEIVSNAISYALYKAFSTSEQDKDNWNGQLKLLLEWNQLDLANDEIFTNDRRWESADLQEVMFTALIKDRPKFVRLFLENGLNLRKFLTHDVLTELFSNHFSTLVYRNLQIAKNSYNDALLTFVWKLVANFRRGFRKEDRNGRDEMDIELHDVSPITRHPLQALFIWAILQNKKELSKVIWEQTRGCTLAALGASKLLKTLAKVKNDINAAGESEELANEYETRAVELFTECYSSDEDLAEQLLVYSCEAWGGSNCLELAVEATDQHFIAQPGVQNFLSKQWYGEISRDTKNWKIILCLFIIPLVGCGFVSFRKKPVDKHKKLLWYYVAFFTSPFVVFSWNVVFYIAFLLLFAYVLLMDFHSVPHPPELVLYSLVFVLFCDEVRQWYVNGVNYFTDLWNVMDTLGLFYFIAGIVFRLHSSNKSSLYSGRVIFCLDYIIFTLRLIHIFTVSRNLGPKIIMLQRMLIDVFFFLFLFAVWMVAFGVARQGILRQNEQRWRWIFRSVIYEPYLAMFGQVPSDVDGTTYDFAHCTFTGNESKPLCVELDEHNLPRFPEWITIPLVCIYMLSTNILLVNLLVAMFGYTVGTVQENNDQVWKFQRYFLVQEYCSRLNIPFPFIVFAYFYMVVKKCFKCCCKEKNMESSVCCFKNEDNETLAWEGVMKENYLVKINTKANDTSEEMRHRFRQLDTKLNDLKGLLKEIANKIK
Nature of the assay: Luminescence readout assay for measuring intracellular calcium, icilin activation. Particulars: CHO cells expressing human TRPM8, aequorin luminescence, 1 μM icilin activation; read-out: hTRPM8 IC50. The assay is classed as cell-based. Summed up: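 The read-out was luminescence reporting intracellular calcium, recorded by a CCD-based luminometer. Compounds were preincubated for 2.5 min before agonist challenge with 1 μM icilin. Human TRPM8 was expressed in a stable T-REx CHO line, induced with 0.5 μg/mL tetracycline the day before.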
As for `COc1ccccc1C(=O)N[C@@H](c1ccc(C(F)(F)F)cc1)c1ncccc1F` [Example 169, (S)-N-((3-fluoropyridin-2-yl)(4-(trifluoromethyl)phenyl)methyl)-2-methoxybenzamide], the pIC50 was 7.98.

For the compound `Cc1ccc([C@H](NC(=O)c2ccc(=O)n(C)c2)c2ncccc2F)cc1F` [Example 335, (S)-N-((3-fluoro-4-methylphenyl)(3-fluoropyridin-2-yl)methyl)-1-methyl-6-oxo-1,6-dihydropyridine-3-carboxamide], the pIC50 is 6.68.

With `CC(C)(O)Cn1cc(C(=O)N[C@@H](c2ccc(OC(F)(F)F)c(F)c2)c2ncccc2F)ccc1=O` [Example 302, (S)-N-((3-fluoro-4-(trifluoromethoxy)phenyl)(3-fluoropyridin-2-yl)methyl)-1-(2-hydroxy-2-methylpropyl)-6-oxo-1,6-dihydropyridine-3-carboxamide], the pIC50 was 7.15.

Regarding `O=C(N[C@@H](c1ccc(OC(F)(F)F)c(F)c1)c1ncccc1Br)c1ccc(=O)[nH]c1` [Example 382, (S)-N-((3-bromopyridin-2-yl)(3-fluoro-4-(trifluoromethoxy)phenyl)methyl)-6-oxo-1,6-dihydropyridine-3-carboxamide], the pIC50 was 8.16.

Consider `O=C(N[C@@H](c1cc(F)cc(F)c1)c1ncccc1F)c1ccc(=O)[nH]c1` [Example 329, (S)-N-((3,5-difluorophenyl)(3-fluoropyridin-2-yl)methyl)-6-oxo-1,6-dihydropyridine-3-carboxamide], for which the pIC50 was 6.08.

As for `O=C(NC(c1ccc(OC(F)(F)F)c(F)c1)c1ccc(F)cc1F)c1ccc(=O)[nH]c1` (centres unmarked) [Example 413, N-((2,4-difluorophenyl)(3-fluoro-4-(trifluoromethoxy)phenyl)methyl)-6-oxo-l,6-dihydropyridine-3-carboxamide], the pIC50 was 6.71.

Turning to `O=C(N[C@@H](c1ccc(C(F)(F)F)cc1)c1ncccc1C(F)(F)F)c1cccnn1` [Example 31, (S)-N-((4-(trifluoromethyl)phenyl)(3-(trifluoromethyl)pyridin-2-yl)methyl)pyridazine-3-carboxamide], the pIC50 was 6.79.

Consider `O=C(N[C@@H](c1ccc(C(F)(F)F)cc1)c1ccccc1Br)c1ccc2ncccc2c1` [Example 256, (S)-N-((2-bromophenyl)(4-(trifluoromethyl)phenyl)methyl)quinoline-6-carboxamide 2,2,2-trifluoro acetate, 2,2,2-trifluoroacetate], for which the pIC50 is 6.52.

As to `O=C1CCc2cc(C(=O)N[C@@H](c3ccc(OC(F)(F)F)c(F)c3)c3ncccc3F)ccc2N1` [Example 351, (S)-N-((3-fluoro-4-(trifluoromethoxy)phenyl)(3-fluoropyridin-2-yl)methyl)-2-oxo-1,2,3,4-tetrahydroquinoline-6-carboxamide], the pIC50 was 7.80.

Take `O=C1COc2cc(C(=O)N[C@@H](c3ccc(OC(F)(F)F)cc3)c3ncccc3F)ccc2N1` [Example 81]: the negative-log IC50 (pIC50) was 7.61.

For the compound `C=CCN1C(=O)c2ccc(C(=O)N[C@@H](c3ccc(C(F)(F)F)cc3)c3ncccc3C(F)(F)F)cc2C1=O` [Example 268, (S)-2-Allyl-1,3-dioxo-N-((4-(trifluoromethyl)phenyl)(3-(trifluoromethyl)pyridin-2-yl)methyl)isoindoline-5-carboxamide], the pIC50 was 6.81.

Turning to `Cc1cc(C)n2nc(C(=O)N[C@@H](c3ccc(C(F)(F)F)cc3)c3ncccc3C(F)(F)F)cc2n1` [Example 149, (S)-5,7-dimethyl-N-((4-(trifluoromethyl)phenyl)(3-(trifluoromethyl)pyridin-2-yl)methyl)pyrazolo[1,5-a]pyrimidine-2-carboxamide], the pIC50 is 6.40.

`O=C(NC(c1ccc(OC(F)(F)F)c(F)c1)c1cccc(F)c1F)c1ccc(=O)[nH]c1` (centres unmarked) [Example 412, N-((2,3-difluorophenyl)(3-fluoro-4-(trifluoromethoxy)phenyl)methyl)-6-oxo-1,6-dihydropyridine-3-carboxamide]: the pIC50 is 7.32.

Take `Cc1cc(C(=O)N[C@@H](c2ccc(C(F)(F)F)cc2)c2ncccc2C(F)(F)F)ccn1` [Example 39, (S)-2-methyl-N-((4-(trifluoromethyl)phenyl)(3-(trifluoromethyl)pyridin-2-yl)methyl)isonicotinamide]: the pIC50 is 7.75.

Regarding `Cc1ccnc(C(NC(=O)c2ccc(=O)[nH]c2)c2ccc(OC(F)(F)F)c(F)c2)c1` (centres unmarked) [Example 423, N-((3-fluoro-4-(trifluoromethoxy)phenyl)(4-methylpyridin-2-yl)methyl)-6-oxo-1,6-dihydropyridine-3-carboxamide], the pIC50 is 6.86.

Turning to `O=C(N[C@@H](c1ccc(C(F)(F)F)cc1)c1ncccc1C(F)(F)F)c1ccno1` [Example 220, (S)-N-((4-(trifluoromethyl)phenyl)(3-(trifluoromethyl)pyridin-2-yl)methyl)isoxazole-5-carboxamide], the pIC50 was 6.79.

`O=C(N[C@@H](c1ccc(C(F)(F)F)cc1)c1ncccc1Br)c1ccc2cccnc2c1` [Example 195, (S)—N-((3-bromopyridin-2-yl)(4-(trifluoromethyl)-phenyl)methyl)quinoline-7-carboxamide]: the pIC50 was 7.30.

Turning to `CC#Cc1cccnc1[C@@H](NC(=O)c1ccc2cccnc2c1)c1ccc(C(F)(F)F)cc1` [Example 97, (S)-N-((3-(prop-1-yn-1-yl)pyridin-2-yl)(4-(trifluoromethyl)phenyl)methyl)quinoline-7-carboxamide 2,2,2-trifluoroacetate], the pIC50 is 6.92.

As for `O=C(N[C@@H](c1ccc(C(F)(F)F)cc1)c1nc(F)ccc1F)c1ccc(=O)[nH]c1` [Example 291, (S)-N-((3,6-difluoropyridin-2-yl)(4-(trifluoromethyl)phenyl)methyl)-6-oxo-1,6-dihydropyridine-3-carboxamide], the pIC50 is 6.48.

Take `Cn1cc(C(=O)N[C@@H](c2ccc(OC(F)(F)F)cc2)c2ncccc2F)ccc1=O` [Example 252, (S)-N-((3-fluoropyridin-2-yl)(4-(trifluoromethoxy)phenyl)methyl)-1-methyl-6-oxo-1,6-dihydropyridine-3-carboxamide 2,2,2-trifluoroacetate]: the pIC50 is 7.61.

As for `O=C(N[C@@H](c1ccc(C(F)(F)F)cc1)c1ccccn1)c1ccc2c(c1)NCCC2` [Example 276, (S)—N-(Pyridin-2-yl(4-(trifluoromethyl)phenyl)methyl)-1,2,3,4-tetrahydroquinoline-7-carboxamide], the pIC50 is 6.75.

Turning to `Nc1n[nH]c(C(=O)N[C@@H](c2ccc(C(F)(F)F)cc2)c2ncccc2C(F)(F)F)n1` [Example 159, (S)-3-amino-N-((4-(trifluoromethyl)phenyl)(3-(trifluoromethyl)pyridin-2-yl)methyl)-1H-1,2,4-triazole-5-carboxamide], the pIC50 is 5.66.

As for `O=C(N[C@@H](c1ccc(Cl)c(Cl)c1)c1ncccc1F)c1ccc(=O)[nH]c1` [Example 250, (S)-N-((3,4-dichlorophenyl)(3-fluoropyridin-2-yl)methyl)-6-oxo-1,6-dihydropyridine-3-carboxamide 2,2,2-trifluoroacetate], the negative-log IC50 (pIC50) is 7.72.

For the compound `CC(=O)Oc1ccc(C(=O)N[C@@H](c2ccc(C(F)(F)F)cc2)c2ncccc2C(F)(F)F)cc1` [Example 174, (S)-4-(((4-(trifluoromethyl)phenyl)(3-trifluoromethyl)methyl)carbamoyl)phenyl acetate], the pIC50 is 7.64.

On to `O=C(N[C@@H](c1ccc(C(F)(F)F)cc1)c1ncccc1F)c1n[nH]c2c1CCCC2` [Example 322, (S)-N-((3-fluoropyridin-2-yl)(4-(trifluoromethyl)phenyl)methyl)-4,5,6,7-tetrahydro-1H-indazole-3-carboxamide], for which the pIC50 is 6.69.

Take `Cc1cncc(C(=O)N[C@@H](c2ccc(C(F)(F)F)cc2)c2ncccc2C(F)(F)F)c1` [Example 182, (S)-5-methyl-N-((4-(trifluoromethyl)phenyl)(3-(trifluoromethyl)pyridin-2-yl)methyl)nicotinamide 2,2,2-trifluoroacetate]: the pIC50 was 7.38.

Turning to `O=C(NC(c1ccc(F)cc1)c1ccc(OC(F)(F)F)c(F)c1)c1ccc(=O)[nH]c1` (centres unmarked) [Example 411, N-((3-fluoro-4-(trifluoromethoxy)phenyl)(4-fluorophenyl)methyl)-6-oxo-1,6-dihydropyridine-3-carboxamide], the pIC50 is 6.85.

Take `Nc1cnccc1C(=O)N[C@@H](c1ccc(C(F)(F)F)cc1)c1ncccc1C(F)(F)F` [Example 139, (S)-3-amino-N-((4-(trifluoromethyl)phenyl)(3-(trifluoromethyl)pyridin-2-yl)methyl)isonicotinamide]: the pIC50 was 7.18.

With `O=C(O)Cn1cc(C(=O)N[C@@H](c2ccc(OC(F)(F)F)c(F)c2)c2ncccc2F)ccc1=O` [Example 428, (S)-2-(5-(((3-Fluoro-4-(trifluoromethoxy)phenyl)(3-fluoropyridin-2-yl)methyl)carbamoyl)-2-oxopyridin-1(2H)-yl)acetic Acid], the pIC50 is 5.89.

On to `CCn1cc(C(=O)N[C@@H](c2ccc(OC(F)(F)F)c(F)c2)c2ncccc2F)ccc1=O` [Example 366, (S)-1-ethyl-N-((3-fluoro-4-(trifluoromethoxy)phenyl)(3-fluoropyridin-2-yl)methyl)-6-oxo-1,6-dihydropyridine-3-carboxamide], for which the pIC50 is 8.01.

Regarding `O=C(N[C@@H](c1ccc(C(F)(F)F)cc1)c1ncccc1F)c1cccs1` [Example 375, (S)-N-((3-fluoropyridin-2-yl)(4-(trifluoromethyl)phenyl)methyl)thiophene-2-carboxamide], the pIC50 is 7.52.

In the case of `O=C(N[C@@H](c1ccc(C(F)(F)F)cc1)c1ncccc1F)c1ccc[nH]c1=O` [Example 72, (S)-N-((3-fluoropyridin-2-yl)(4-(trifluoromethyl)phenyl)methyl)-2-oxo-1,2-dihydropyridine-3-carboxamide], the pIC50 was 6.78.
